Measurements taken from PubChem BioAssay (NCI).
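How tested: cells in 96-well plates exposed to compound for 48 hours at five concentrations. GI50 marks 50% less growth. TGI: concentration producing complete growth inhibition.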

Columns and labels:
Test in all cases: NCI-60 cell line screen, 48 h
HCT-116 colon = tested on: HCT-116 colon
SR leukemia = tested on: SR leukemia
SN12C renal = tested on: SN12C renal
OVCAR-8 ovarian = tested on: OVCAR-8 ovarian
NCI-H23 lung = tested on: NCI-H23 lung
SK-OV-3 ovarian = tested on: SK-OV-3 ovarian
786-0 renal = tested on: 786-0 renal
LOX IMVI melanoma = tested on: LOX IMVI melanoma
EKVX NSCLC = tested on: EKVX NSCLC
A549 NSCLC = tested on: A549 NSCLC
K-562 leukemia = tested on: K-562 leukemia
SW-620 colon = tested on: SW-620 colon
T-47D breast = tested on: T-47D breast
COLO 205 colon = tested on: COLO 205 colon
SNB-19 CNS = tested on: SNB-19 CNS
RPMI-8226 leukemia = tested on: RPMI-8226 leukemia
NCI-H522 lung = tested on: NCI-H522 lung
UACC-257 melanoma = tested on: UACC-257 melanoma
M14 melanoma = tested on: M14 melanoma
OVCAR-4 ovarian = tested on: OVCAR-4 ovarian
NCI/ADR-RES ovarian = tested on: NCI/ADR-RES ovarian
DU-145 prostate = tested on: DU-145 prostate
NCI-H460 lung = tested on: NCI-H460 lung
U251 CNS = tested on: U251 CNS
OVCAR-3 ovarian = tested on: OVCAR-3 ovarian
HT29 colon = tested on: HT29 colon
MDA-MB-435 = tested on: MDA-MB-435
MDA-MB-231 breast = tested on: MDA-MB-231 breast
HOP-92 NSCLC = tested on: HOP-92 NSCLC

**Q.** How did the GI50 (HCT-116 colon) turn out when `CC(C)(C)[Si](C)(C)OC1[C@@H](O[Si](C)(C)C(C)(C)C)[C@@H](CNC(=O)NC(=O)NC(=O)CCl)O[C@H]1n1cnc2c(NC(=O)Nc3ccccc3)ncnc21` (stereo partly drawn) was run?
**A.** 1.85 µM

**Q.** What about the TGI (HCT-116 colon) of the same compound?
**A.** 7.41 µM

**Q.** What about the GI50 (SR leukemia) of the same compound?
**A.** 0.226 µM

**Q.** What about the TGI (SR leukemia) of the same compound?
**A.** 0.81 µM

**Q.** What about the GI50 (SN12C renal) of the same compound?
**A.** 3.69 µM

**Q.** What about the TGI (SN12C renal) of the same compound?
**A.** 10.6 µM

**Q.** What about the GI50 (OVCAR-8 ovarian) of the same compound?
**A.** 0.955 µM

**Q.** What about the TGI (OVCAR-8 ovarian) of the same compound?
**A.** 3.77 µM

**Q.** What about the GI50 (NCI-H23 lung) of the same compound?
**A.** 1.57 µM

**Q.** And the TGI (NCI-H23 lung)?
**A.** 6.59 µM

**Q.** What about the GI50 (SK-OV-3 ovarian) of the same compound?
**A.** 9.51 µM

**Q.** And the TGI (SK-OV-3 ovarian)?
**A.** 17.5 µM

**Q.** What about the GI50 (786-0 renal) of the same compound?
**A.** 1.3 µM

**Q.** And the TGI (786-0 renal)?
**A.** 4.76 µM

**Q.** What about the GI50 (LOX IMVI melanoma) of the same compound?
**A.** 0.236 µM

**Q.** What about the TGI (LOX IMVI melanoma) of the same compound?
**A.** 0.52 µM

**Q.** And the GI50 (EKVX NSCLC)?
**A.** 1.69 µM

**Q.** And the TGI (EKVX NSCLC)?
**A.** 6.54 µM

**Q.** And the GI50 (A549 NSCLC)?
**A.** 2.26 µM

**Q.** And the TGI (A549 NSCLC)?
**A.** 8.92 µM

**Q.** And the GI50 (K-562 leukemia)?
**A.** 2.56 µM

**Q.** And the TGI (K-562 leukemia)?
**A.** 7.51 µM

**Q.** And the GI50 (SW-620 colon)?
**A.** 3.52 µM

**Q.** What about the TGI (SW-620 colon) of the same compound?
**A.** 11.6 µM

**Q.** And the GI50 (T-47D breast)?
**A.** 8.59 µM

**Q.** What about the TGI (T-47D breast) of the same compound?
**A.** 17.5 µM

**Q.** What about the GI50 (COLO 205 colon) of the same compound?
**A.** 6.3 µM

**Q.** And the TGI (COLO 205 colon)?
**A.** 13 µM

**Q.** What about the GI50 (SNB-19 CNS) of the same compound?
**A.** 15.7 µM

**Q.** And the TGI (SNB-19 CNS)?
**A.** 48.6 µM

**Q.** And the GI50 (RPMI-8226 leukemia)?
**A.** 1.56 µM

**Q.** And the TGI (RPMI-8226 leukemia)?
**A.** 5.95 µM

**Q.** What about the GI50 (NCI-H522 lung) of the same compound?
**A.** 0.282 µM

**Q.** What about the TGI (NCI-H522 lung) of the same compound?
**A.** 0.572 µM

**Q.** What about the GI50 (UACC-257 melanoma) of the same compound?
**A.** 5.64 µM

**Q.** And the TGI (UACC-257 melanoma)?
**A.** 13.2 µM

**Q.** And the GI50 (M14 melanoma)?
**A.** 5.34 µM

**Q.** What about the TGI (M14 melanoma) of the same compound?
**A.** 11.8 µM

**Q.** And the GI50 (OVCAR-4 ovarian)?
**A.** 3.31 µM

**Q.** What about the TGI (OVCAR-4 ovarian) of the same compound?
**A.** 10.5 µM

**Q.** What about the GI50 (NCI/ADR-RES ovarian) of the same compound?
**A.** 6.45 µM

**Q.** And the TGI (NCI/ADR-RES ovarian)?
**A.** 15.9 µM

**Q.** And the GI50 (DU-145 prostate)?
**A.** 7.88 µM

**Q.** What about the TGI (DU-145 prostate) of the same compound?
**A.** 16.4 µM

**Q.** And the GI50 (NCI-H460 lung)?
**A.** 2.23 µM

**Q.** What about the TGI (NCI-H460 lung) of the same compound?
**A.** 12.1 µM

**Q.** What about the GI50 (U251 CNS) of the same compound?
**A.** 1.56 µM

**Q.** What about the TGI (U251 CNS) of the same compound?
**A.** 4.22 µM

**Q.** What about the GI50 (OVCAR-3 ovarian) of the same compound?
**A.** 1.82 µM

**Q.** What about the TGI (OVCAR-3 ovarian) of the same compound?
**A.** 4.87 µM

**Q.** And the GI50 (HT29 colon)?
**A.** 1.43 µM

**Q.** And the TGI (HT29 colon)?
**A.** 3.67 µM

**Q.** And the GI50 (MDA-MB-435)?
**A.** 6.61 µM

**Q.** And the TGI (MDA-MB-435)?
**A.** 17.6 µM

**Q.** And the GI50 (MDA-MB-231 breast)?
**A.** 1.31 µM

**Q.** And the TGI (MDA-MB-231 breast)?
**A.** 3.76 µM

**Q.** And the GI50 (HOP-92 NSCLC)?
**A.** 0.842 µM

**Q.** And the TGI (HOP-92 NSCLC)?
**A.** 1.98 µM
